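Exposure lasted 48 hours, with cells grown in 96-well plates and compounds tested at five concentrations. GI50 marks 50% less growth. TGI marks complete inhibition of growth.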

One assay concerns PC-3 prostate. In words: NCI tumour cell line growth inhibition, 48 h.
Regarding `O=C1C=CC2(C=C1)O[C@H](Cc1ccccc1)[C@@H](Cc1ccccc1)O2`, the TGI came out at 3.34 µM.

A further assay relates to T-47D breast. Briefly: NCI tumour cell line growth inhibition, 48 h.
The molecule `Cn1c(=O)c2[nH]c(CCNC(=O)c3ccccc3)nc2n(C)c1=O` had a TGI above 100 µM.
The molecule `Cc1cc(S(=O)(=O)Nc2nc3ccccc3nc2-c2cccc([N+](=O)[O-])c2)c(S)cc1Cl` came in with a TGI of 38.9 µM.
Still for that read-out and setting: in the case of `O=c1ssc(=Nc2ccccc2)n1-c1ccccc1` it was 39.1 µM.
On to `NCCSS(=O)(=O)CCN`, for which the TGI is above 100 µM.
`OCCNCCN1CCN(CCCN2c3ccccc3Sc3ccc(C(F)(F)F)cc32)CC1` registered a TGI of 50.4 µM.
The same measure, in the same setting: as for `CCCc1c(-c2ccccc2)[nH]c2ccccc2c1=O`, the figure is 99.8 µM; as for `COc1c(Br)cc2c(c1OC)C(Br)CCC(Br)(Br)C2=O` (centres undefined), 4.84 µM.
Same read-out and setting: as for `O=C1C=CC2(C=C1)O[C@H](Cc1ccccc1)[C@@H](Cc1ccccc1)O2`, the figure is above 100 µM.

The subject of a further assay is 786-0 renal. In words: NCI tumour cell line growth inhibition, 48 h.
`Cn1c(=O)c2[nH]c(CCNC(=O)c3ccccc3)nc2n(C)c1=O` gave a TGI above 100 µM.
In the case of `Cc1cc(S(=O)(=O)Nc2nc3ccccc3nc2-c2cccc([N+](=O)[O-])c2)c(S)cc1Cl`, the TGI came out at 45.6 µM.
As for `O=c1ssc(=Nc2ccccc2)n1-c1ccccc1`, the TGI was determined as 34.6 µM.
In the case of `NCCSS(=O)(=O)CCN`, the TGI was above 100 µM.
On the same count and under the same terms, as for `OCCNCCN1CCN(CCCN2c3ccccc3Sc3ccc(C(F)(F)F)cc32)CC1`, the figure is 31 µM; as for `C[N+](C)(C)CCc1ccccc1`, above 100 µM.
On the same count and under the same terms, as for `COc1c(Br)cc2c(c1OC)C(Br)CCC(Br)(Br)C2=O` (centres undefined), the figure is 1.46 µM; as for `O=C1C=CC2(C=C1)O[C@H](Cc1ccccc1)[C@@H](Cc1ccccc1)O2`, […].

The subject of the next assay is MDA-MB-435. Briefly: NCI tumour cell line growth inhibition, 48 h.
As for `Cn1c(=O)c2[nH]c(CCNC(=O)c3ccccc3)nc2n(C)c1=O`, the TGI is above 100 µM.
On the same count and under the same terms, as for `Cc1cc(S(=O)(=O)Nc2nc3ccccc3nc2-c2cccc([N+](=O)[O-])c2)c(S)cc1Cl`, the figure is 41 µM; as for `O=c1ssc(=Nc2ccccc2)n1-c1ccccc1`, above 100 µM; as for `NCCSS(=O)(=O)CCN`, above 100 µM.
On the same count and under the same terms, as for `OCCNCCN1CCN(CCCN2c3ccccc3Sc3ccc(C(F)(F)F)cc32)CC1`, the figure is 33.7 µM; as for `CCCc1c(-c2ccccc2)[nH]c2ccccc2c1=O`, above 100 µM; as for `COc1c(Br)cc2c(c1OC)C(Br)CCC(Br)(Br)C2=O` (centres undefined), 3.62 µM.
On the same count and under the same terms, in the case of `O=C1C=CC2(C=C1)O[C@H](Cc1ccccc1)[C@@H](Cc1ccccc1)O2` it was 3.56 µM.

The subject of the next assay is P388 leukemia. In words: NCI tumour cell line growth inhibition, 48 h.
On to `N#C[C@H](OC1OC(COC2OC(CO)C(O)C(O)C2O)C(O)C(O)C1O)c1ccccc1` (some centres undefined), for which the TGI is above 250 µM.
For the molecule `CCN(CC)c1ccc2cc(C(=O)Nc3ccc4[nH]c(C(=O)N5C[C@@H](CCl)c6c5cc(OC(=O)Nc5ccccc5)c5[nH]cc(C)c65)cc4c3)oc2c1`, the GI50 is 89.4 µM.
`CC(=O)Oc1cc2c(cc1OC(C)=O)OCC(c1ccccc1)C2` (centres undefined) had a TGI of 9.97 µM.
On the same count and under the same terms, as for `O=C(CCl)NNC1=Nc2ccc(Cl)cc2SC1`, the figure is 1.07 µM; as for `CCCNC(=O)C(C)C1CCC2(C)C=CC(=O)C(C)=C2C1O` (centres undefined), above 100 µM.

For a further assay, the system named is RXF-631 renal. Briefly: NCI tumour cell line growth inhibition, 48 h.
With `C[N+](C)(C)CCc1ccccc1`, the TGI is above 100 µM.

Another assay has as its system DLD-1 colon. In words: NCI tumour cell line growth inhibition, 48 h.
Regarding `N#C[C@H](OC1OC(COC2OC(CO)C(O)C(O)C2O)C(O)C(O)C1O)c1ccccc1` (some centres undefined), the TGI is above 250 µM.
For `CC(=O)Oc1cc2c(cc1OC(C)=O)OCC(c1ccccc1)C2` (centres undefined), the TGI was determined as 27.4 µM.
Same read-out and setting: as for `O=C(O)c1cc2c(ncc3c(=O)n(-c4ccccc4)[nH]c32)s1`, the figure is above 100 µM; as for `O=C(CCl)NNC1=Nc2ccc(Cl)cc2SC1`, 3.6 µM.
Still for that read-out and setting: in the case of `Cc1ccc(C2OC(COCc3ccc(Cl)cc3)C(OCc3ccc(Cl)cc3)C2O)cc1` (centres undefined) it was 34.1 µM; in that of `C[N+](C)(C)CCc1ccccc1`, above 100 µM.
Same read-out and setting: as for `CCCNC(=O)C(C)C1CCC2(C)C=CC(=O)C(C)=C2C1O` (centres undefined), the figure is above 100 µM.
On to `O=C(Nc1nc2ccc([N+](=O)[O-])cc2s1)C(=O)C(C(=O)c1ccccc1F)C1OC(=O)c2ccccc21` (centres undefined), for which the TGI is above 100 µM.
Still for that read-out and setting: in the case of `Nc1ccn(C2C=C(CO)C(O)C2O)c(=O)c1` (centres undefined) it was above 62.5 µM.
On the same count and under the same terms, as for `COc1nc(=O)n(COC(CO)CN2C(=O)c3ccccc3C2=O)cc1Cc1cccc(OCc2ccccc2)c1` (centres undefined), the figure is above 100 µM.

The next assay deals with XF 498 CNS. Briefly: NCI tumour cell line growth inhibition, 48 h.
On to `N#C[C@H](OC1OC(COC2OC(CO)C(O)C(O)C2O)C(O)C(O)C1O)c1ccccc1` (some centres undefined), for which the TGI was above 25 µM.
The same measure, in the same setting: as for `CC(=O)Oc1cc2c(cc1OC(C)=O)OCC(c1ccccc1)C2` (centres undefined), the figure is 25.3 µM; as for `O=C(O)c1cc2c(ncc3c(=O)n(-c4ccccc4)[nH]c32)s1`, above 100 µM.
On the same count and under the same terms, as for `O=C(CCl)NNC1=Nc2ccc(Cl)cc2SC1`, the figure is 3.92 µM; as for `Cc1ccc(C2OC(COCc3ccc(Cl)cc3)C(OCc3ccc(Cl)cc3)C2O)cc1` (centres undefined), 22.6 µM; as for `C[N+](C)(C)CCc1ccccc1`, above 100 µM.
Same read-out and setting: in the case of `CCCNC(=O)C(C)C1CCC2(C)C=CC(=O)C(C)=C2C1O` (centres undefined) it was above 100 µM; in that of `O=C(Nc1nc2ccc([N+](=O)[O-])cc2s1)C(=O)C(C(=O)c1ccccc1F)C1OC(=O)c2ccccc21` (centres undefined), above 100 µM.

The next assay has as its system LXFL 529 NSCLC. In words: NCI tumour cell line growth inhibition, 48 h.
`O=C(O)c1cc2c(ncc3c(=O)n(-c4ccccc4)[nH]c32)s1` showed a TGI above 100 µM.
On the same count and under the same terms, in the case of `Cc1ccc(C2OC(COCc3ccc(Cl)cc3)C(OCc3ccc(Cl)cc3)C2O)cc1` (centres undefined) it was 58.5 µM; in that of `C[N+](C)(C)CCc1ccccc1`, above 100 µM; in that of `O=C(Nc1nc2ccc([N+](=O)[O-])cc2s1)C(=O)C(C(=O)c1ccccc1F)C1OC(=O)c2ccccc21` (centres undefined), above 100 µM.
Turning to `COc1nc(=O)n(COC(CO)CN2C(=O)c3ccccc3C2=O)cc1Cc1cccc(OCc2ccccc2)c1` (centres undefined), the TGI was above 100 µM.
